Among the data in patent US10329289B2, “6,7-dihydro-5H-pyrrolo[3,4-B]pyridin-5-one allosteric modulators of the M4 muscarinic acetylcholine receptor” (Merck Sharp & Dohme Corp., priority 2015, dated 2019) are EC50 values, retold here.

SMILES strings stand for the structures.

The target in the assay is T1, human M4 muscarinic acetylcholine receptor (Homo sapiens, UniProt P08173).
T1 construct: expressed in transfected cells; host or cells: CHO-K1
T1 sequence (P08173 1-479): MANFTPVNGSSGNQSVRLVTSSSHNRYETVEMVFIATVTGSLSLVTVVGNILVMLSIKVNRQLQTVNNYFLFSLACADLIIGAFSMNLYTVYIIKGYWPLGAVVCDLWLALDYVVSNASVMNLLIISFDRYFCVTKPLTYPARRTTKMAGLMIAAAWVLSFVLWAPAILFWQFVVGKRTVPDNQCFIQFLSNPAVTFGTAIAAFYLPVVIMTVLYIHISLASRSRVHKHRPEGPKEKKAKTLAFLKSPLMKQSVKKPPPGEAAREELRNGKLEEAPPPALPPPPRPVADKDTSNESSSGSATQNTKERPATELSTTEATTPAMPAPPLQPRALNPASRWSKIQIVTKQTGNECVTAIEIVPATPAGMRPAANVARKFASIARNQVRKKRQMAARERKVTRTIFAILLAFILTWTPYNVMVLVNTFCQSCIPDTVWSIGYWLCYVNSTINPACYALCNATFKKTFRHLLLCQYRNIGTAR
Briefly: human FLIPR-based M4 PAM assay (Ca2+ mobilization, CHO-K1 cells with human M4 receptor and Gαqi5). The assay is classed as cell-based. The note with it: acetylcholine at 20% of maximum response, read-out: M4 PAM IP. The procedure, abridged: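 Calcium-mobilization (FLIPR) readout in dye-loaded CHO-K1 cells co-expressing human M4 receptor and Gαqi5. Potentiation measured against acetylcholine at a concentration giving 20% of maximal response, with an optional 70% addition; the reported value is the curve inflection point from a 4-parameter logistic fit.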
For orientation: Calcium assays in cells follow changes in intracellular calcium, usually with a dye or a luminescent sensor.
For `COCCCN1Cc2nc(N3CCC(Oc4ccc(OC)nc4)CC3)c(C)cc2C1=O` [Example 251, 6-(3-methoxypropyl)-2-(4-((6-methoxypyridin-3-yl)oxy)piperidin-1-yl)-3-methyl-6,7-dihydro-5H-pyrrolo[3,4-b]pyridin-5-one], the EC50 amounted to 198 nM.

With `COCCN1Cc2nc(N3CCC(Oc4ccc(OC)nc4)CC3)c(C)cc2C1=O` [Example 252, 6-(2-methoxyethyl)-2-(4-((6-methoxypyridin-3-yl)oxy)piperidin-1-yl)-3-methyl-6,7-dihydro-5H-pyrrolo[3,4-b]pyridin-5-one], the EC50 was determined as 94 nM.

On to `Cc1cc2c(nc1N1CCC(Oc3ccc(F)cc3)CC1)CN(C)C2=O` [Example 253, 2-(4-(4-fluorophenoxy)piperidin-1-yl)-3,6-dimethyl-6,7-dihydro-5H-pyrrolo[3,4-b]pyridin-5-one], for which the EC50 is 49 nM.

With `CCOc1ccc(OC2CCN(c3nc4c(cc3C)C(=O)N(CCO)C4)CC2)cn1` [Example 254, 2-(4-((6-ethoxypyridin-3-yl)oxy)piperidin-1-yl)-6-(2-hydroxyethyl)-3-methyl-6,7-dihydro-5H-pyrrolo[3,4-b]pyridin-5-one], the EC50 stood at 69 nM.

`Cc1cc2c(nc1N1CC[C@@H](Oc3ccc4c(c3)COC4)[C@@H](F)C1)CN(CCO)C2=O` [Example 255, 2-((3S,4R)-4-((1,3-dihydro-2-benzofuran-5-yl)oxy)-3-fluoropiperidin-1-yl)-6-(2-hydroxyethyl)-3-methyl-6,7-dihydro-5H-pyrrolo[3,4-b]pyridin-5-one]: the EC50 amounted to 29 nM.

As to `COc1ccc(OC2CCN(c3nc4c(cc3C)C(=O)N(CC3COC3)C4CC3COC3)CC2)cn1` (stereo not shown) [Example 255A, 2-(4-((6-methoxypyridin-3-yl)oxy)piperidin-1-yl)-3-methyl-6,7-bis(oxetan-3-ylmethyl)-6,7-dihydro-5H-pyrrolo[3,4-b]pyridin-5-one], the EC50 is 803 nM.

In the case of `COC(=O)CN1Cc2nc(N3CCC(OCC4(C)CC4)CC3)c(C)c(C)c2C1=O` [Example 256, methyl 2-(3,4-dimethyl-2-(4-((1-methylcyclopropyl)methoxy)piperidin-1-yl)-5-oxo-5,7-dihydro-6H-pyrrolo[3,4-b]pyridin-6-yl)acetate], the EC50 was 85 nM.

Consider `Cc1cc2c(nc1N1CC[C@@H](Oc3ccc4c(c3)COC4)[C@H](F)C1)CN(CCO)C2=O` [Example 257, 2-((3R,4R)-4-((1,3-dihydro-2-benzofuran-5-yl)oxy)-3-fluoropiperidin-1-yl)-6-(2-hydroxyethyl)-3-methyl-6,7-dihydro-5H-pyrrolo[3,4-b]pyridin-5-one], for which the EC50 came to 84 nM.

With `CCc1cc2c(nc1N1CCC(Oc3ccc4c(c3)COC4)CC1)CN(CCO)C2=O` [Example 258, 2-(4-((1,3-dihydro-2-benzofuran-5-yl)oxy)piperidin-1-yl)-3-ethyl-6-(2-hydroxyethyl)-6,7-dihydro-5H-pyrrolo[3,4-b]pyridin-5-one], the EC50 was 126 nM.

Regarding `COc1ccc(OC2CCN(c3nc4c(cc3C)C(=O)N(Cc3ccncc3)C4)CC2)cn1` [Example 259, 2-(4-((6-methoxypyridin-3-yl)oxy)piperidin-1-yl)-3-methyl-6-(pyridin-4-ylmethyl)-6,7-dihydro-5H-pyrrolo[3,4-b]pyridin-5-one], the EC50 came to 87 nM.

With `Cc1c(N2CCC(OCC3(C)CC3(F)F)CC2)nc2c(c1C)C(=O)N(CCO)C2` (stereo not shown) [Example 259A, 2-(4-((2,2-difluoro-1-methylcyclopropyl)methoxy)piperidin-1-yl)-6-(2-hydroxyethyl)-3,4-dimethyl-6,7-dihydro-5H-pyrrolo[3,4-b]pyridin-5-one], the EC50 stood at 117 nM.

Take `COC(=O)CN1Cc2nc(N3CCC(Oc4ccc(OC)nc4)CC3)c(C)cc2C1=O` [Example 260, methyl 2-(2-(4-((6-methoxypyridin-3-yl)oxy)piperidin-1-yl)-3-methyl-5-oxo-5,7-dihydro-6H-pyrrolo[3,4-b]pyridin-6-yl)acetate]: the EC50 amounted to 141 nM.

On to `COCCN1Cc2nc(N3CCC(Oc4ccc5c(c4)COC5)CC3)c(C)c(C)c2C1=O` [Example 260A, 2-(4-((1,3-dihydro-2-benzofuran-5-yl)oxy)piperidin-1-yl)-6-(2-methoxyethyl)-3,4-dimethyl-6,7-dihydro-5H-pyrrolo[3,4-b]pyridin-5-one], for which the EC50 is 43 nM.

With `Cc1c(N2CC[C@@H](Oc3ccc4c(c3)COC4)[C@@H](F)C2)nc2c(c1C)C(=O)N(CCO)C2` [Example 261, 2-((3S,4R)-4-((1,3-dihydro-2-benzofuran-5-yl)oxy)-3-fluoropiperidin-1-yl)-6-(2-hydroxyethyl)-3,4-dimethyl-6,7-dihydro-5H-pyrrolo[3,4-b]pyridin-5-one], the EC50 was 39 nM.

As to `Cc1cc2c(nc1N1CC[C@@H](Oc3ccc(F)cc3)[C@@H](F)C1)CN(CCO)C2=O` [Example 262, 2-((3S,4R)-3-fluoro-4-(4-fluorophenoxy)piperidin-1-yl)-6-(2-hydroxyethyl)-3-methyl-6,7-dihydro-5H-pyrrolo[3,4-b]pyridin-5-one], the EC50 is 43 nM.

For `Cc1cc2c(nc1N1CCC(Oc3ccc4c(c3)COC4)CC1)CN(CCO)C2=O` [Example 263, 2-(4-((1,3-dihydro-2-benzofuran-5-yl)oxy)piperidin-1-yl)-6-(2-hydroxyethyl)-3-methyl-6,7-dihydro-5H-pyrrolo[3,4-b]pyridin-5-one], the EC50 is 57 nM.

For `COCCN1Cc2nc(N3CCC(Oc4ccc5c(c4)COC5)CC3)c(C)cc2C1=O` [Example 263A, 2-(4-((1,3-dihydro-2-benzofuran-5-yl)oxy)piperidin-1-yl)-6-(2-methoxyethyl)-3-methyl-6,7-dihydro-5H-pyrrolo[3,4-b]pyridin-5-one], the EC50 was determined as 40 nM.

On to `Cc1cc2c(nc1N1CCC(Oc3ccc(F)cc3)CC1)CN(CCO)C2=O` [Example 264, 2-(4-(4-Fluorophenoxy)piperidin-1-yl)-6-(2-hydroxyethyl)-3-methyl-6,7-dihydro-5H-pyrrolo[3,4-b]pyridin-5-one], for which the EC50 came to 36 nM.

For `Cc1c(N2CCC(Oc3ccc4c(c3)COC4)CC2)nc2c(c1C)C(=O)N(CCO)C2` [Example 264A, 2-(4-((1,3-Dihydro-2-benzofuran-5-yl)oxy)piperidin-1-yl)-6-(2-hydroxyethyl)-3,4-dimethyl-6,7-dihydro-5H-pyrrolo[3,4-b]pyridin-5-one], the EC50 turned out to be 38 nM.

Consider `Cc1c(N2CCC(Oc3ccc4c(c3)C[C@H](O)C4)CC2)nc2c(c1C)C(=O)N(CCO)C2` [Example 264D, (R)-2-(4-((2-hydroxy-2,3-dihydro-1H-inden-5-yl)oxy)piperidin-1-yl)-6-(2-hydroxyethyl)-3,4-dimethyl-6,7-dihydro-5H-pyrrolo[3,4-b]pyridin-5-one], for which the EC50 was 79 nM.

As to `Cc1c(N2CCC(Oc3ccc4c(c3)C[C@@H](O)C4)CC2)nc2c(c1C)C(=O)N(CCO)C2` [Example 264E, (S)-2-(4-((2-hydroxy-2,3-dihydro-1H-inden-5-yl)oxy)piperidin-1-yl)-6-(2-hydroxyethyl)-3,4-dimethyl-6,7-dihydro-5H-pyrrolo[3,4-b]pyridin-5-one], the EC50 came out at 125 nM.

Turning to `Cc1c(N2CCC(Oc3ccccc3)CC2)nc2c(c1C)C(=O)N(CCO)C2` [Example 265, 6-(2-hydroxyethyl)-3,4-dimethyl-2-(4-phenoxypiperidin-1-yl)-6,7-dihydro-5H-pyrrolo[3,4-b]pyridin-5-one], the EC50 was determined as 46 nM.
